Among the data in ChEMBL document CHEMBL5335827, “Divergent Biosynthesis of Bridged Polycyclic Sesquiterpenoids by a Minimal Fungal Biosynthetic Gene Cluster” (J Nat Prod, 2024) are Activity and IC50 values, retold here.

The structures appear in SMILES notation. The source made the active and inactive calls. The rule behind the calls is not given here.

What all share (format): functional, cell-based
For one experiment, the system named is HepG2. Description: Cytotoxicity against human HepG2 cells at 20 uM by CCK8 assay. On the technique in general: Formazan colour is commonly taken as a measure of viable cells.
The subject of another experiment is LoVo. Nature of the experiment: Cytotoxicity against human LoVo cells at 20 uM by CCK8 assay.
Another experiment relates to RAW264.7. Nature of the experiment: Anti-inflammatory activity against mouse RAW264.7 cells assessed as inhibition of LPS-induced NO release by Griess assay. Background: Nitrite, measured by Griess reagent, commonly stands in for NO production.

As for `C=C1C2C3[C@@H](C[C@@H]2O)[C@]1(C)CC[C@H](O)C3(C)C`, the outcome with HepG2 and in the experiment with LoVo was inactive.

`C=C1[C@H]([C@@H]2C[C@H](O)C(=O)O2)[C@H]2[C@@H](C(C)C)CC[C@]1(C)[C@H]2CO`: the result in the experiment on HepG2 and in the experiment with LoVo was inactive.

As to `C=C1C2C(=O)C[C@@H]3C2C(C)(C)CCC[C@]13CO`, the result in the experiment on HepG2 and with LoVo was inactive.

Take `C=C1C2C3[C@@H](C[C@@H]2O)[C@]1(C)C(=O)CCC3(C)C`: the outcome in the experiment on HepG2 and in the experiment with LoVo was inactive.

`C=C1C2C3[C@@H](C[C@@H]2O)[C@]1(C)CCC[C@@]3(C)CO`: the result with HepG2 and in the experiment on LoVo was inactive.

Turning to `C=C1C2C3[C@@H](C[C@@H]2O)[C@]1(C)[C@H](O)CCC3(C)C`, the result in the experiment with HepG2 and in the experiment on LoVo was inactive.

In the case of `C=C1[C@H](CO)C2[C@@H]([C@H](C)CO)CC[C@]1(C)[C@H]2CO`, the outcome with HepG2 and with LoVo was inactive.

Consider `C=C1C2C(=O)C[C@@H]3C2C(C)(C)CC[C@H](O)[C@]13C`, for which the result in the experiment on HepG2 and in the experiment with LoVo was inactive.

With `CC(C)[C@H]1CC[C@]2(CO)C(C)[C@@H]3C(O)C(O)[C@H]2C13` (mixture of isomers), the result with HepG2 and in the experiment with LoVo was inactive.

As to `CC1(C)CCC[C@]2(C)C(CO)=CC1[C@H]2CCO`, the outcome with HepG2 and in the experiment with LoVo was inactive.

In the case of `CC(C)[C@H]1CC[C@]2(C)[C@H]3CO[C@]2(CO)C=C[C@@H]13`, the result in the experiment on HepG2 and in the experiment with LoVo was inactive.

For the compound `CC(=O)/C=C/[C@H]1[C@H]2C(C=O)=C(C)[C@]1(C)CC[C@@H]2C(C)C`, the result in the experiment with HepG2 and in the experiment on LoVo was inactive. Also, the IC50 (usually the point on the concentration scale where inhibition reaches its midpoint) in the experiment with RAW264.7 came to 3.9 µM.

For `C=C1CC2[C@@H](C(C)C)CC[C@]1(C)[C@H]2C(O)CO` (stereo partly specified), the outcome in the experiment with HepG2 and in the experiment with LoVo was inactive.

For `C=C1[C@@H]2C(O)C(O)[C@H]3[C@@H]2[C@@H](C(C)C)CC[C@@]13CO` (stereo partly specified), the outcome in the experiment on HepG2 and in the experiment on LoVo was inactive.

Consider `C=C1[C@@H]2OC[C@H]3[C@@H]([C@H]2O)[C@@H](C(C)C)CC[C@@]13C`, for which the result with HepG2 and in the experiment with LoVo was inactive.
